Data as given in publication PMC8401465, “In Vitro Testing of Alternative Synthetic and Natural Antiparasitic Compounds against the Monogenean Sparicotyle chrysophrii” (Pathogens, 2021).
Where two headings read alike, the source gives them in different places.

Key:
[1] = tested on: Sparicotyle chrysophrii adults; assay: microbe, parasite or virus in culture; conditions: for LC20 (95% CI), toxicity level for adult S. chrysophrii: 20% mortality; for LC50: read-out: LC50 (95% CI), toxicity level for adult S. chrysophrii; for LC80 (95% CI), toxicity level for adult S. chrysophrii: 80% mortality; for b (SE), slope of dose–response model / e (SE), midpoint of dose–response model: Weibull type 2, c = 0, d = 1, mortality at 4 h post-exposure; for fold less toxic for S. chrysophrii than eucalyptol and garlicin 80%: comparison with eucalyptol and garlicin 80%; for fold lower toxicity for S. chrysophrii than curcumin: comparison with curcumin
Procedure: Subsequently, the monogeneans (n = 6, in triplicate) were exposed to a range of seven concentrations tailored according to each compound’s activity observed in preliminary tests. The range for each compound was scaled down to an appropriate order of magnitude so that each compound reached 100% mortality at 4 h post-exposure (Table 1).
For the dose–response curve fitting, the drc package for R (v4.0.4) was used. An appropriate nonlinear regression model was selected between log-logistic and Weibull type models, based on the Akaike information criterion (AIC) and lack-of-fit test criteria through the use of mselect function. The best scoring model was Weibull type 2 model (asymmetrical) with lower and upper limits fixed to 0 and 1, respectively, as mortality in all assays reached 100%. […] Model parameters and estimated lethal doses (20%, 50%, and 80%) were calculated with standard errors and 95% confidence intervals, based on the delta method, respectively, and adjusted for simultaneous inference through multcomp package. Dose–response curves were visualised using ggplot2 library.

Vibrio harveyi = assay: Bactericidal activity (MTT), Vibrio harveyi; format: cell-based; conditions: for bactericidal activity against V. harveyi: synthetic compounds, at increased concentrations; for inhibition at 0.1 µM / inhibition at 1 µM / inhibition at 10 µM: Vibrio harveyi; for antimicrobial activity against V. harveyi: p < 0.05
Procedure: (§1) Two bacterial fish pathogens, Vibrio harveyi and V. anguillarum were used to test the bactericidal activity of the target compounds, being previously isolated and identified as described in [65]. Lab strains were maintained at −20 °C in Tryptone Soy Broth (TSB, Difco Laboratories, Inc., Detroit, MI, USA) supplemented with 1% (w/v) NaCl (TSB1) and 50% (v/v) glycerol. […] Bacteria in TSB medium were then cultured at the same temperature with continuous shaking (100 rpm) for 24 h. Exponentially grown bacteria were resuspended in sterile PBS and adjusted to the concentration of 10^8 colony forming units (cfu)/mL. Each target compound (20 μL; concentrations 0.1, 1, and 10 µM) was added (in triplicates) to the wells of a flat-bottom 96-well plate, except for the positive control that consisted of 0.5% DMSO in PBS. Aliquots of 20 μL of the previously cultured bacteria were added, and the plate was incubated for 5 h at 25 °C. […] The plate was then centrifuged (4500 rpm, 10 min) and the precipitate dissolved in 200 μL of DMSO. The solution (100 μL) from each well was transferred to another flat-bottom 96-well plate. The absorbance of the dissolved formazan was measured at 570 nm. Bactericidal activity was expressed as percentage of nonviable bacteria, calculated as the difference between absorbance of surviving bacteria compared to the absorbance of bacteria in positive controls (100%).

Vibrio anguillarum = assay: Bactericidal activity (MTT), Vibrio anguillarum; format: cell-based; conditions: for antibacterial activity against V. anguillarum: among the natural compounds; for antibacterial activity against V. anguillarum / antimicrobial activity against V. anguillarum: p < 0.05; for inhibition at 0.1 µM / inhibition at 1 µM / inhibition at 10 µM: Vibrio anguillarum
Procedure: as §1

[2] = tested on: Sparicotyle chrysophrii adults; assay: microbe, parasite or virus in culture; conditions: for mortality at 1000 µM: Sparicotyle chrysophryii
Procedure: Firstly, the adult monogeneans were exposed to a range of four concentrations of tested compounds encompassing the full dose–response range; each compound stock at 10 mM was serially diluted 10 (1 mM), 10^2 (0.1 mM), 10^3 (0.01 mM), and 10^4 (1 µM) times. […] Ten monogeneans per well (in triplicate) were added to 2 mL sterile seawater (SW) in 6-well plates, checked at the stereomicroscope for visible signs of mechanical damage, and exposed to selected concentrations in the dark at room temperature (Table 1). The number of live/dead parasites was recorded under the stereomicroscope at 1, 4, 12, and 24 h post-exposure. S. chrysophrii was considered to be alive if it performed any type of movement autonomously or 5 s after gentle probing with a dissection needle. Negative controls comprised the seawater with up to 0.5% of DMSO in total volume, the latter used as a solvent for each compound.

[3] = 50% mortality, 4 h post-exposure
[4] = 0.1 µM, 5 h at 25 °C, read-out: Bactericidal activity (%)
[5] = 1 µM, 5 h at 25 °C, read-out: Bactericidal activity (%)
[6] = 10 µM, 5 h at 25 °C, read-out: Bactericidal activity (%)
[7] = 5 h, read-out: Bactericidal activity (%)

Molecule | LC20 (95% CI), toxicity level for adult S. chrysophrii ([1]; 4 h post-exposure) | LC50 [1, 3] [µM] | LC80 (95% CI), toxicity level for adult S. chrysophrii ([1]; 4 h post-exposure) | b (SE), slope of dose–response model [1] | e (SE), midpoint of dose–response model [1] | inhibition (Vibrio harveyi; [4]) [%] | inhibition (Vibrio harveyi; [5]) [%] | inhibition (Vibrio harveyi; [6]) [%] | inhibition (Vibrio anguillarum; [4]) [%] | inhibition (Vibrio anguillarum; [5]) [%] | inhibition (Vibrio anguillarum; [6]) [%] | potency / effect against V. anguillarum as judged in the discussion (Vibrio anguillarum) | inhibition at 0.1 µM (Vibrio harveyi; [4]) [%] | inhibition at 1 µM (Vibrio harveyi; [5]) [%] | inhibition at 10 µM (Vibrio harveyi; [6]) [%] | inhibition at 0.1 µM (Vibrio anguillarum; [4]) [%] | inhibition at 1 µM (Vibrio anguillarum; [5]) [%] | inhibition at 10 µM (Vibrio anguillarum; [6]) [%] | antimicrobial activity against V. harveyi (Vibrio harveyi; 10 µM) | further results
1R-Camphor | 0.71 (0.53–0.89) mM | 910 | 1.1 (0.94–1.26) mM | 4.54 (0.91) | 0.99 (0.05) | -23.6 ± 2.6 | 7.7 ± 10.7 | 9.3 ± 7.4 | -38.8 ± 22 | -27.8 ± 19 | -17.4 ± 9.3 |  |  |  |  |  |  |  |  | fold less toxic for S. chrysophrii than eucalyptol and garlicin 80% [1]: approximately 1.2
CC(C)=C[C@@H]1[C@@H](C(=O)O)C1(C)C (relative stereo) [(+)-trans-Chrysanthemic acid] | 0.58 (0.43–0.74) mM | 840 | 1.1 (0.79–1.41) mM | 3.12 (0.69) | 0.94 (0.07) | -47.7 ± 5.9 | -25.4 ± 14.6 | 13.2 ± 6.5 | -1.4 ± 13 | 8.15 ± 16.3 | 32 ± 9 | the effect was observed only against V. anguillarum |  |  |  |  |  |  |  | fold less toxic for S. chrysophrii than eucalyptol and garlicin 80% [1]: approximately 1.2; antibacterial activity against V. anguillarum (Vibrio anguillarum): strongest antibacterial activity
Oc1c(Cl)cc(Cl)cc1Sc1cc(Cl)cc(Cl)c1O [Bithionate sodium, 2,2′-sulfanediylbis(4,6-dichlorophenolate), reference compound] | 0.003 (0.002–0.005) mM | 5 to 10 | 0.01 (0.01–0.01) mM | 1.93 (0.36) | 0.01 (0.001) | -8.8 ± 1.8 | 3.5 ± 11.6 | 40 ± 0.7 | 4.9 ± 11.8 | 49.2 ± 11.6 | 96.4 ± 1.7 |  |  |  |  |  |  |  |  | bactericidal activity against V. harveyi (Vibrio harveyi): significant bactericidal activity; antimicrobial activity against V. anguillarum (Vibrio anguillarum; 10 µM): best antimicrobial activity
O=c1ccc2ccccc2o1 [Coumarin] |  |  |  |  |  |  |  |  |  |  |  |  | -33.4 ± 3.9 | -21.2 ± 13.3 | -1.9 ± 7.6 | 1.5 ± 8.38 | 13.2 ± 13.4 | 17.3 ± 5 |  | mortality at 1000 µM ([2]; 24 h): 100%; antibacterial activity against V. anguillarum (Vibrio anguillarum): strongest antibacterial activity
C=CCSCC=C [Diallyl sulphide] |  |  |  |  |  |  |  |  |  |  |  |  | -36.6 ± 6.8 | -36.4 ± 7.9 | -1.6 ± 0.7 | -11.3 ± 24.8 | -5.8 ± 11.7 | 46.8 ± 4 |  | mortality at 1000 µM ([2]; 24 h): 100%; antimicrobial activity against V. anguillarum (Vibrio anguillarum; 10 µM): best antimicrobial activity
CC12CCC(CC1)C(C)(C)O2 [Eucalyptol] | 0.5 (0.38–0.63) mM |  | 0.83 (0.71–0.94) mM | 3.99 (0.7) | 0.74 (0.03) |  |  |  |  |  |  | ineffective against V. anguillarum | -2.7 ± 8.7 | -1.9 ± 12.3 | 50.3 ± 6.8 | -31.7 ± 156 | -34.1 ± 10.5 | 23.6 ± 3.1 | significant antimicrobial activity | LC50 ([1]; Sparicotyle chrysophryii, 4 h): 670 µM; fold lower toxicity for S. chrysophrii than curcumin [1]: approximately 3; potency / effect against V. harveyi as judged in the discussion (Vibrio harveyi): highest anti-Vibrio harveyi effect among tested natural compounds
C=CCSSCC=C [Garlicin 80%] | 0.4 (0.27–0.53) mM | 600 | 0.81 (0.66–0.95) mM | 2.79 (0.49) | 0.68 (0.04) | 20.9 ± 19.9 | 28.7 ± 6.2 | 42 ± 1.3 | -110 ± 84.2 | -46 ± 17.2 | -52.1 ± 31.4 | ineffective against V. anguillarum |  |  |  |  |  |  | significant antimicrobial activity | fold lower toxicity for S. chrysophrii than curcumin [1]: approximately 3; potency / effect against V. harveyi as judged in the discussion (Vibrio harveyi): highest anti-Vibrio harveyi effect among tested natural compounds
C[C@H]1C(=O)O[C@@H]2CCN3CC=C(COC(=O)[C@](C)(O)[C@]1(C)O)[C@H]23 [Monocrotaline] |  |  |  |  |  |  |  |  |  |  |  |  |  |  |  |  |  |  | significant antimicrobial activity | mortality at 1000 µM ([2]; 1 h): 100%; inhibition at 0.1 µM (Vibrio harveyi; [7]): -4.9 ± 24.9%; inhibition at 1 µM (Vibrio harveyi; [7]): 18.2 ± 10.9%; inhibition at 10 µM (Vibrio harveyi; [7]): 40.1 ± 4.1%; inhibition at 0.1 µM (Vibrio anguillarum; [7]): -73 ± 56.1%; inhibition at 1 µM (Vibrio anguillarum; [7]): -46.9 ± 32%; inhibition at 10 µM (Vibrio anguillarum; [7]): 17.9 ± 0.6%
CCN(CC)C(=O)c1cccc(C)c1 [N,N-diethyl-M-toluamide, reference compound] |  |  |  |  |  |  |  |  |  |  |  |  |  |  |  |  |  |  |  | mortality ([2]; highest concentration (1 mM), already after 1 h): 100%; inhibition (Vibrio harveyi; 0.1 µM): -0.9 ± 8.7%; inhibition (Vibrio harveyi; 1 µM): 4.5 ± 16.7%; inhibition (Vibrio harveyi; 10 µM): 13.7 ± 0.6%; bactericidal activity against V. harveyi (Vibrio harveyi): significant bactericidal activity; inhibition (Vibrio anguillarum; 0.1 µM): -61.9 ± 29%; inhibition (Vibrio anguillarum; 1 µM): -28.5 ± 24.1%; inhibition (Vibrio anguillarum; 10 µM): 9.1 ± 8.5%
